Converted amounts (≈) assume the structure as drawn. Like-named read-outs stand apart in the source and are kept apart here.
How the values were obtained:
Bacillus cereus = test: Antimicrobial activity, broth microdilution; format: cell-based; details: read-out: IC50 B. cereus
Description: (§1) The antimicrobial activity assay was performed using the broth microdilution method. Dimethyl sulfoxide (DMSO) was used for the preparation of compound solutions at concentrations of 256 μg/mL, 64 μg/mL, 16 μg/mL, 4 μg/mL, and 1 μg/mL. Three strains of Gram-positive bacteria (Staphylococcus aureus, Bacillus cereus, and Lactobacillus fermentum); three strains of Gram-negative bacteria (Salmonella enterica, Escherichia coli, and Pseudomonas aeruginosa), and fungus Candida albicans (obtained from the American Type Culture Collection (ATCC)) were used for the test. Ampicillin, Cefotaxim, and Nystatin were used as positive controls for the Gram (+) bacterial and Gram (−) bacterial strains and C. albicans, respectively. The activity of the isolated compounds was expressed as an IC50 value (half-maximal inhibitory concentration). The IC50 values were calculated using the program […].

Lactobacillus fermentum = test: Antimicrobial activity, broth microdilution; format: cell-based; details: read-out: IC50 L. fermentum
Description: as §1

Staphylococcus aureus = test: Antimicrobial activity, broth microdilution; format: cell-based; details: read-out: IC50 S. aureus
Description: as §1

Escherichia coli = test: Antimicrobial activity, broth microdilution; format: cell-based; details: for IC50: Escherichia coli, read-out: IC50 E. coli
Description: as §1

Pseudomonas aeruginosa = test: Antimicrobial activity, broth microdilution; format: cell-based; details: for IC50: Pseudomonas aeruginosa, read-out: IC50 P. aeruginosa
Description: as §1

Salmonella enterica = test: Antimicrobial activity, broth microdilution; format: cell-based; details: Gram (−) strain; for IC50: Salmonella enterica, read-out: IC50 S. enterica
Description: as §1

Candida albicans = test: Antimicrobial activity, broth microdilution; format: cell-based; details: for IC50: Candida albicans, read-out: IC50 C. albicans
Description: as §1

[1] = test system: A-549 (human lung adenocarcinoma); test: Cytotoxicity assay (MTT); format: cell-based; details: read-out: IC50 A-549
Description: (§2) The cytotoxic assays were evaluated in triplicate against three cancer cell lines, namely KB (epidermal carcinoma), A-549 (human lung adenocarcinoma), and HepG-2 (human hepatoma) (ATCC), with a modification of the previously published method. The cells were cultured in Dulbecco’s D-MEM medium (Gibco, Life Technologies Corporation, Grand Island, NY, USA), supplemented with 10% fetal calf serum (Sigma-Aldrich, St. Loius, MO, USA), L-glutamine (2 mM) (Sigma-Aldrich, St. Loius, MO, USA), penicillin G (100 UI/mL), and streptomycin (100 μg/mL) (Sigma-Aldrich, St. Loius, MO, USA). The compound solutions were prepared in DMSO, and the cytotoxic assays were conducted in 96-well microtiter plates against the cancer cells (3 × 10^5 cells/mL concentration). After 48 h incubation at 37 °C in an air/CO2 (95:5) atmosphere, with or without isolated compounds, MTT reagent was added to each well (0.5 mg/mL). The cell growth was assessed by measuring the colorimetric of formazan at 570 nm using a microplate reader. […] Ellipticine was used as a positive reference.

HepG-2 (human hepatoma) = test: Cytotoxicity assay (MTT); format: cell-based; details: read-out: IC50 Hep-G2
Description: as §2

KB (epidermal carcinoma) = test: Cytotoxicity assay (MTT); format: cell-based; details: read-out: IC50 KB
Description: as §2

α-glucosidase [2] = biological target: T1, α-glucosidase (Saccharomyces cerevisiae, UniProt P53341); test: biochemical
T1 construct: purchased Sigma-Aldrich G0660
Description: An assay for the α-glucosidase inhibitory activity was carried out by a modification of the published method. Briefly, solutions of α-glucosidase (Saccharomyces cerevisiae, G0660, Sigma-Aldrich, St. Louis, MO, USA) and p-nitrophenyl α-D-glucopyranoside (Sigma-Aldrich, St. Louis, MO, USA) were prepared in a phosphate buffer (100 mM, pH 6.8, Sigma-Aldrich, St. Louis, MO, USA). […] The compound solution (2 μL) and 40 µL of enzyme solution (0.5 U/mL) in 120 µL phosphate buffer were mixed. After 5 min of preincubation, 20 µL of 10 mM p-nitrophenyl α-D-glucopyranoside prepared in phosphate buffer was added, and the reaction mixture was incubated for 30 min at 37 °C. The reaction was quenched by the addition of 80 µL of 0.2 M Na2CO3. The absorbance of the released p-nitrophenol was measured at 410 nm using a Biotek reader. The % inhibition was calculated using the following equation:Inhibition (%) = [1 − (Asample/Acontrol)] ∗ 100
The IC50 values of the isolated compounds were calculated using the program Table Curve.

[3] = test system: Gram (+) bacterial strains; test: Antibacterial activity, range over strains; format: cell-based; details: range over strains and compounds
Description: as §1

[4] = test system: KB, HepG-2, and A-549 cancer cell lines; test: Cytotoxicity assay (MTT), range over the three cell lines; format: cell-based; details: range over three cell lines and both xanthones
Description: as §2

α-glucosidase [5] = details: cited from earlier work
[6] = Table S1, α-glucosidase, read-out: IC50 (Table S1) (converted)
[7] = p-nitrophenyl α-D-glucopyranoside, pH 6.8, 37 °C, read-out: IC50 α-Glucosidase Inhibitory Activity
[8] = IC50 (Table S1), Table S1, α-glucosidase
[9] = IC50 α-Glucosidase Inhibitory Activity, p-nitrophenyl α-D-glucopyranoside, pH 6.8, 37 °C

T1 sequence (P53341 whole entry): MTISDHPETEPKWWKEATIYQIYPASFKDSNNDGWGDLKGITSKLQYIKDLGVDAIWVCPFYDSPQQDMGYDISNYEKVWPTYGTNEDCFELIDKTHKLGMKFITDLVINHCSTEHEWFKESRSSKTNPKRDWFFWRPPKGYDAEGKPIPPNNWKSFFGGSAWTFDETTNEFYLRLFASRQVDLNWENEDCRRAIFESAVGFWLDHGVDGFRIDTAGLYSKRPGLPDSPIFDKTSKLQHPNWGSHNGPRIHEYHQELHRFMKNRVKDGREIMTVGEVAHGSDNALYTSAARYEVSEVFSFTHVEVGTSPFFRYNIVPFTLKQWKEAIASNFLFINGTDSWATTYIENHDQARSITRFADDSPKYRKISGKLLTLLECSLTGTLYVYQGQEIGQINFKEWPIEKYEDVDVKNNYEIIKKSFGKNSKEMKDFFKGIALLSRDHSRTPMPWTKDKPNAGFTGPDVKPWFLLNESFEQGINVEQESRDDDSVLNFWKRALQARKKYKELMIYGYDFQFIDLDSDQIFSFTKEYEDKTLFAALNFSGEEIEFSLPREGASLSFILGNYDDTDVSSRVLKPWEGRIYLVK

SMILES	IC50 (Bacillus cereus; Gram (+) strain)	IC50 (Lactobacillus fermentum; Gram (+) strain)	IC50 (Staphylococcus aureus; Gram (+) strain)	IC50 (Bacillus cereus)	IC50 (Candida albicans)	IC50 (Escherichia coli)	IC50 (Pseudomonas aeruginosa)	IC50 (Salmonella enterica)	IC50 (Staphylococcus aureus)	IC50 ([1]; A549, MTT, 48 h incubation)	IC50 (HepG-2 (human hepatoma); HepG2, MTT, 48 h incubation)	IC50 (KB (epidermal carcinoma); MTT, 48 h incubation)	IC50 (α-glucosidase [2]; [6])	IC50 (α-glucosidase [2]; [7])	IC50 (Lactobacillus fermentum)	other results
CC1(C)S[C@@H]2[C@H](NC(=O)[C@H](N)c3ccccc3)C(=O)N2[C@H]1C(=O)O [A, Ampicillin, reference compound]	3.62 ± 0.15 µg/mL (≈ 10.4 µM)	1.03 ± 0.07 µg/mL (≈ 2.95 µM)	0.02 ± 0.005 µg/mL (≈ 0.0572 µM)	–	–	–	–	–	–	–	–	–	–	–	–	–
CO/N=C(\C(=O)N[C@@H]1C(=O)N2C(C(=O)O)=C(COC(C)=O)CS[C@H]12)c1csc(N)n1 [C, Cefotaxim, reference compound]	–	–	–	–	–	–	–	–	–	–	–	–	–	–	–	IC50 E. coli (Escherichia coli; Gram (−) strain): 0.07 ± 0.02 µg/mL (≈ 0.154 µM); IC50 P. aeruginosa (Pseudomonas aeruginosa; Gram (−) strain): 4.34 ± 0.15 µg/mL (≈ 9.53 µM); IC50 S. enterica (Salmonella enterica): 0.43 ± 0.05 µg/mL (≈ 0.944 µM)
C=C1CC[C@@H]2[C@H]([C@H]3[C@H]1CC[C@]3(C)O)C2(C)C [Compound 1, spathulenol]	–	206 ± 5.23 µg/mL (≈ 934 µM)	–	> 256 µg/mL	> 256 µg/mL	> 256 µg/mL	> 256 µg/mL	> 256 µg/mL	> 256 µg/mL	> 128 µg/mL	> 128 µg/mL	> 128 µg/mL	> 1160 µM	> 1160 µM	–	–
CC1(C)[C@H]2[C@H]3[C@@H](CC[C@]3(C)O)[C@](C)(O)CC[C@H]21 [Compound 2, 1αH,5βH-aromandendrane-4β,10α-diol]	–	–	–	> 256 µg/mL	> 256 µg/mL	> 256 µg/mL	> 256 µg/mL	> 256 µg/mL	> 256 µg/mL	> 128 µg/mL	> 128 µg/mL	> 128 µg/mL	> 1070 µM	> 1070 µM	> 256 µg/mL	–
C=C1CC[C@@H](O)[C@]2(C)CC[C@@H](C(C)C)[C@H](O)[C@@H]12 [Compound 3, 1β,6α-dihydroxy-4(15)-eudesmene]	–	–	–	> 256 µg/mL	> 256 µg/mL	> 256 µg/mL	> 256 µg/mL	> 256 µg/mL	> 256 µg/mL	> 128 µg/mL	> 128 µg/mL	> 128 µg/mL	> 1070 µM	> 1070 µM	> 256 µg/mL	–
CC1(C)[C@H]2[C@H]3[C@H](CC[C@@]3(C)O)[C@@](C)(O)CC[C@H]21 [Compound 4, 1βH,5βH-aromandendrane-4α,10β-diol]	–	–	–	> 256 µg/mL	> 256 µg/mL	> 256 µg/mL	> 256 µg/mL	> 256 µg/mL	> 256 µg/mL	> 128 µg/mL	> 128 µg/mL	89.1 ± 9.67 µg/mL (≈ 374 µM)	> 1070 µM	> 1070 µM	> 256 µg/mL	–
CC(=O)O[C@H]1CC[C@]2(C)[C@H]3CC=C4[C@@H]5CC(C)(C)CC[C@]5(C(=O)O)CC[C@@]4(C)[C@]3(C)CC[C@H]2C1(C)C [Compound 5, acetyl oleanolic acid]	–	–	–	> 256 µg/mL	> 256 µg/mL	> 256 µg/mL	> 256 µg/mL	> 256 µg/mL	> 256 µg/mL	–	–	–	–	–	49.9 ± 1.06 µg/mL (≈ 100 µM)	IC50 ([1]; A549, 48 h): > 128 µg/mL; IC50 (HepG-2 (human hepatoma); HepG2, 48 h): > 128 µg/mL; IC50 (KB (epidermal carcinoma); 48 h): > 128 µg/mL; IC50 (α-glucosidase [2]; [8]): 16.9 µM; IC50 (α-glucosidase [2]; [9]): 16.9 µM
CC(C)=CCC[C@H](C(=O)O)[C@@H]1CC[C@]2(C)C3=C(CC[C@@]12C)[C@@]1(C)CC[C@@H](O)C(C)(C)[C@@H]1CC3 [Compound 6, 3α-hydroxytirucalla-8,24-dien-21-oic acid]	–	–	–	141 ± 4.14 µg/mL (≈ 308 µM)	> 256 µg/mL	> 256 µg/mL	> 256 µg/mL	> 256 µg/mL	> 256 µg/mL	–	–	–	–	–	62.2 ± 1.24 µg/mL (≈ 136 µM)	IC50 ([1]; A549, 48 h): 78.6 ± 7.69 µg/mL (≈ 172 µM); IC50 (HepG-2 (human hepatoma); HepG2, 48 h): 77.7 ± 8.09 µg/mL (≈ 170 µM); IC50 (KB (epidermal carcinoma); 48 h): 49.3 ± 5.21 µg/mL (≈ 108 µM); IC50 (α-glucosidase [2]; [8]): > 561 µM; IC50 (α-glucosidase [2]; [9]): > 561 µM
C[C@H]1[C@H](C)CC[C@]2(C(=O)O)CC[C@]3(C)C(=CC[C@@H]4[C@@]5(C)CC[C@H](O)C(C)(C)[C@@H]5CC[C@]43C)[C@H]12 [Compound 7, ursolic acid]	10.2 ± 0.67 µg/mL (≈ 22.3 µM)	10.6 ± 0.7 µg/mL (≈ 23.2 µM)	7.1 ± 0.25 µg/mL (≈ 15.5 µM)	–	–	–	–	> 256 µg/mL	–	> 128 µg/mL	> 128 µg/mL	> 128 µg/mL	–	–	–	IC50 (Candida albicans; Fungus): > 256 µg/mL; IC50 (Escherichia coli; Gram (−) strain): > 256 µg/mL; IC50 (Pseudomonas aeruginosa; Gram (−) strain): > 256 µg/mL; IC50 [3]: 0.56 to 17.3 µg/mL (≈ 1.23 to 37.9 µM)
CC(C)=CCC/C(C)=C/Cc1c(O)c(CC=C(C)C)c(O)c2c(=O)c3cc(O)ccc3oc12 [Compound 8, cochinchinone A]	7.99 ± 0.33 µg/mL (≈ 17.8 µM)	8.67 ± 0.38 µg/mL (≈ 19.3 µM)	17.3 ± 0.87 µg/mL (≈ 38.6 µM)	–	–	–	–	> 256 µg/mL	–	20.3 ± 1.34 µg/mL (≈ 45.3 µM)	17.4 ± 1.03 µg/mL (≈ 38.7 µM)	29.3 ± 2.07 µg/mL (≈ 65.3 µM)	20.2 µM	–	–	IC50 (Candida albicans; Fungus): 65.3 ± 3.54 µg/mL (≈ 146 µM); IC50 (Escherichia coli; Gram (−) strain): > 256 µg/mL; IC50 (Pseudomonas aeruginosa; Gram (−) strain): 35.4 ± 2.03 µg/mL (≈ 79 µM); IC50 [4]: 7.55 to 29.3 µg/mL (≈ 16.8 to 65.3 µM); IC50 [3]: 0.56 to 17.3 µg/mL (≈ 1.25 to 38.6 µM)
COc1c(O)cc2oc3cc(O)c(CC=C(C)C)c(O)c3c(=O)c2c1CC=C(C)C [Compound 9, α-mangostin]	0.57 ± 0.07 µg/mL (≈ 1.39 µM)	0.56 ± 0.09 µg/mL (≈ 1.36 µM)	0.54 ± 0.07 µg/mL (≈ 1.32 µM)	–	–	–	–	16.3 ± 0.78 µg/mL (≈ 39.8 µM)	–	7.55 ± 0.25 µg/mL (≈ 18.4 µM)	12.9 ± 0.68 µg/mL (≈ 31.4 µM)	9.28 ± 0.58 µg/mL (≈ 22.6 µM)	–	–	–	IC50 (Candida albicans; Fungus): 0.56 ± 0.06 µg/mL (≈ 1.36 µM); IC50 (Escherichia coli; Gram (−) strain): 7.89 ± 0.34 µg/mL (≈ 19.2 µM); IC50 (Pseudomonas aeruginosa; Gram (−) strain): 1.22 ± 0.09 µg/mL (≈ 2.97 µM); IC50 (α-glucosidase [2]; [8]): 4.63 µM; IC50 (α-glucosidase [2]; [9]): 4.63 µM; IC50 (α-glucosidase [2]; IC50 α-glucosidase, equivalent in μM, converted from μg/mL): 4.63 ± 0.24 µM; IC50 [4]: 7.55 to 29.3 µg/mL (≈ 18.4 to 71.3 µM); IC50 [3]: 0.56 to 17.3 µg/mL (≈ 1.36 to 42.2 µM); IC50 (α-glucosidase [5]; ref 59 (Nam K. Nguyen et al.)): 11.4 ± 2.3 µM; IC50 (α-glucosidase [5]; ref 60 (H. W. Ryu et al.)): 5 ± 0.1 µM
Cc1c2ccncc2c(C)c2c1[nH]c1ccccc12 [Ellipticine, reference compound]	–	–	–	–	–	–	–	–	–	0.34 ± 0.02 µg/mL (≈ 1.38 µM)	0.5 ± 0.03 µg/mL (≈ 2.03 µM)	0.48 ± 0.03 µg/mL (≈ 1.95 µM)	–	–	–	–
C[C@@H]1[C@H](O)[C@@H](C)/C=C/C=C/CC/C=C/C=C/C=C/C=C/C(O[C@H]2O[C@H](C)[C@@H](O)[C@H](N)[C@@H]2O)CC2O[C@](O)(CC(O)C(O)CCC(O)CC(O)CC(O)CC(=O)O[C@H]1C)CC(O)C2C(=O)O (stereo partly drawn) [N, Nystatin, reference compound]	–	–	–	–	–	–	–	–	–	–	–	–	–	–	–	IC50 C. albicans (Candida albicans; Fungus): 1.32 ± 0.05 µg/mL (≈ 1.43 µM)
